This test concerns DU-145 cells. In words: Cell proliferation assay (Alamar-Blue) in DU-145 cells. In kind it is cell-based. Conditions: DU-145 human prostate carcinoma cells, 3 days incubation, Alamar-Blue fluorescence. As for the experimental part:
Protocol for Cell Proliferation Assay:
This homogeneous assay involves simply adding a single reagent, the Alamar-Blue to the cell culture and measuring the fluorescence intensity (excitation wavelength=530 nm, emission wavelength=590 nm) after an incubation step. The Alamar-Blue reagent utilizes the redox dye resazurin, which is not fluorescent, but upon reduction by metabolically active cells is converted into a highly fluorescent product (resorufin). A decrease in fluorescence in the presence of a test compound indicates reduced proliferation. This change in signal is proportional to the number of viable cells and used as a measure of relative cytotoxicity. Therefore, the fluorescence intensity observed in this assay is a true measure of the viable proliferative cells.
• 2 mM stock of Paclitaxel in DMSO. • DMSO—(dimethylsulfoxide) (Panreac, Cat. number 141954.1611) • Resazurin sodium salt (Sigma, R-7071). 50 mM stock in DMSO. Equipment • Biomek FX Laboratory Automated Workstation (Beckman Coulter Inc., Fullerton, Calif.) • CO2 incubator (VWR Science, USA) • Bright line Hemacytometer (Z359629, Sigma, Ill., USA) Materials • 384-deep well plates (Greiner, No 781270) • 384-well optical bottom tissue culture plates (Greiner, No. 82051-282) Propagation CONDITIONS: 37° C., air 95%; carbon dioxide (CO2) 5%, humidified atmosphere. SUBCULTURING: • Cells were grown in 175 cm^2 flasks to 90-100% of confluency. • Culture media (RPMI-1640 (Paneco, C310)+10% FBS (fetal bovine serum)) was aspirated and cell layer was briefly rinsed with 0.53 mM EDTA solution to remove all traces of serum. • 2 ml of 0.2% trypsin/0.53 mM EDTA (ethylenediaminetetraacetic acid) solution was added to cells. • Flasks were returned to incubator for 5 rain to allow cells detachment • Add 6.0 ml of complete growth medium. • Single cell suspension was created by gently pipetting. • Cells are counted using a Hematocytometer and suspension with desirable cell concentration is prepared.
To test proliferation inhibition DU-145 cells were plated in 384-well plate at the density 4000 cells/well. Next day 4 mM solutions of compounds in DMSO were diluted 100 times in medium and added to cells to final concentration 20 uM (40 ul of cells+40 ul of compounds). Taxol at final concentration 1 uM was used as positive control. Cells were incubated with compounds for 3 days. After that Alamar-Blue was added to cells to a final concentration of 50 uM. After incubation for 4-6 hours at 37° C., fluorescence in plate was read using fluorescence plate reader Wallac 1420 (530 nm excitation filter, 590 nm emission filter). Proliferation inhibition was calculated using formula: % INH=100*((Fnegative−compound signal)/(Fnegative−Fpositive)), • Fnegative—DMSO was added to cells (viable cells) • Fpositive—taxol (1 uM) was added to cells (number of cells at the first day of incubation)
Background: Resazurin is reduced to fluorescent resorufin, in cell work by metabolically active cells.

As usually defined, the IC50 is the midpoint of a concentration-inhibition curve. Read a high IC50 as lower potency.

Molecules are shown by their SMILES.

For the setting “72 h”, `CCCCn1c(-c2nonc2NC(=O)c2ccccc2Cl)nc2ccccc21` [Example 1, 2-Chloro-N^1-[4-(1-butyl-1H-1,3-benzimidazol-2-yl)-1,2,5-oxadiazol-3-yl]benzamide] showed a half-maximal inhibitory concentration (IC50) of 290 nM.
On the same count and under the same terms, the result for `CC(C)Cn1c(-c2nonc2NC(=O)c2ccccc2Cl)nc2ccccc21` [Example 2, 2-Chloro-N^1-[4-(1-isobutyl-1H-1,3-benzimidazol-2-yl)-1,2,5-oxadiazol-3-yl]benzamide] reads 280 nM.
Same read-out and setting: the result for `C=CCn1c(-c2nonc2NC(=O)c2ccccc2Cl)nc2ccccc21` [Example 3, 2-Chloro-N^1-[4-(1-allyl-1H-1,3-benzimidazol-2-yl)-1,2,5-oxadiazol-3-yl]benzamide] reads 890 nM.
As to `CCOC(=O)Cn1c(-c2nonc2NC(=O)c2ccccc2F)nc2ccccc21` [Example 4, Ethyl 2-(2-4-[(2-fluorobenzoyl)amino]-1,2,5-oxadiazol-3-yl-1H-1,3-benzimidazol-1-yl)acetate], half-maximal inhibition (IC50) required 320 nM.
`CCOc1ccccc1C(=O)Nc1nonc1-c1ccc(OC)cc1` [Example 5, 2-Ethoxy-N^1-[4-(4-methoxyphenyl)-1,2,5-oxadiazol-3-yl]benzamide]: the IC50 (72 h) is 980 nM.
Still for that read-out and setting: the result for `CCCOc1ccccc1C(=O)Nc1nonc1-c1ccc(OC)cc1` [Example 6, 2-Propoxy-N^1-[4-(4-methoxyphenyl)-1,2,5-oxadiazol-3-yl]benzamide] reads 850 nM.
On the same count and under the same terms, to `CCOc1ccc(-c2nonc2NC(=O)c2ccccc2OCC)cc1` [Example 7, 2-Ethoxy-N^1-[4-(4-ethoxyphenyl)-1,2,5-oxadiazol-3-yl]benzamide] belongs 120 nM; to `CCCOc1ccccc1C(=O)Nc1nonc1-c1ccc(OCC)cc1` [Example 8, 2-Propoxy-N^1-[4-(4-ethoxyphenyl)-1,2,5-oxadiazol-3-yl]benzamide], 340 nM.
On to `CCCCOc1ccccc1C(=O)Nc1nonc1-c1ccc(OCC)cc1` [Example 9, 2-Butoxy-N^1-[4-(4-ethoxyphenyl)-1,2,5-oxadiazol-3-yl]benzamide], for which the IC50 (72 h) came to 850 nM.
As for `CCOc1ccc(-c2nonc2NC(=O)c2ccccc2OCC)cc1C` [Example 10, 2-Ethoxy-N^1-[4-(4-ethoxy-3-methylphenyl)-1,2,5-oxadiazol-3-yl]benzamide], the half-inhibitory concentration (IC50) (72 h) was 860 nM.
Take `CCCOc1ccccc1C(=O)Nc1nonc1-c1ccc(OCC)c(C)c1` [Example 11, 2-Propoxy-N^1-[4-(4-ethoxy-3-methylphenyl)-1,2,5-oxadiazol-3-yl]benzamide]: inhibition (72 h) was half-maximal at 930 nM (IC50).
With `CCOc1ccc(-c2nonc2NC(=O)c2oc3ccc(Cl)cc3c2C)cc1` [Example 12, 5-chloro-N^2-[4-(4-ethoxyphenyl)-1,2,5-oxadiazol-3-yl]-3-methyl-1-benzofuran-2-carboxamide], it took 950 nM to reach half-maximal inhibition (72 h) (IC50).

The values are drawn from patent US8362047B1, “Anti-cancer agents based on 4-(hetero)Ary1-1,2,5-oxadiazol-3-yl Amino derivatives and a method of making” (U.S. Department of Energy, priority 2010, dated 2013).
